Reference: ChEMBL document CHEMBL5050844 (2019)

Experiments:
[1] = Induction of anti-CD3 antibodies-stimulated human T cell activation at 1 uM assessed fold increase in IL-2 secretion measured by ELISA assay; format: functional, T cell line
[2] = molecular target: E3 ubiquitin-protein ligase CBL-B (Homo sapiens, UniProt Q13191); test: Inhibition of N-terminal Avi-tagged human CBL-B (36 to 427 residues) incubated with 60 nM Src kinase for 1.5 hrs followed by incubation with fluorescently labeled UbcH5B-Ub for 1 hr and measured by TR-FRET assay; format: single protein
[3] = Induction of anti-CD3/CD28 antibodies-stimulated human T cell activation at 0.3 uM assessed fold increase in CD25 expression measured by ELISA assay; format: functional, T cell line
[4] = Induction of anti-CD3 antibodies-stimulated human T cell activation at 1 uM assessed fold increase in CD25 expression measured by ELISA assay; format: functional, T cell line
[5] = Induction of anti-CD3/CD28 antibodies-stimulated human T cell activation at 1 uM assessed fold increase in IL-2 secretion measured by ELISA assay; format: functional, T cell line
[6] = Induction of anti-CD3/CD28 antibodies-stimulated human T cell activation at 0.3 uM assessed fold increase in IL-2 secretion measured by ELISA assay; format: functional, T cell line
[7] = Induction of anti-CD3/CD28 antibodies-stimulated human T cell activation at 1 uM assessed fold increase in CD25 expression measured by ELISA assay; format: functional, T cell line

Chain of E3 ubiquitin-protein ligase CBL-B (Q13191 whole entry, the tested form may be a part): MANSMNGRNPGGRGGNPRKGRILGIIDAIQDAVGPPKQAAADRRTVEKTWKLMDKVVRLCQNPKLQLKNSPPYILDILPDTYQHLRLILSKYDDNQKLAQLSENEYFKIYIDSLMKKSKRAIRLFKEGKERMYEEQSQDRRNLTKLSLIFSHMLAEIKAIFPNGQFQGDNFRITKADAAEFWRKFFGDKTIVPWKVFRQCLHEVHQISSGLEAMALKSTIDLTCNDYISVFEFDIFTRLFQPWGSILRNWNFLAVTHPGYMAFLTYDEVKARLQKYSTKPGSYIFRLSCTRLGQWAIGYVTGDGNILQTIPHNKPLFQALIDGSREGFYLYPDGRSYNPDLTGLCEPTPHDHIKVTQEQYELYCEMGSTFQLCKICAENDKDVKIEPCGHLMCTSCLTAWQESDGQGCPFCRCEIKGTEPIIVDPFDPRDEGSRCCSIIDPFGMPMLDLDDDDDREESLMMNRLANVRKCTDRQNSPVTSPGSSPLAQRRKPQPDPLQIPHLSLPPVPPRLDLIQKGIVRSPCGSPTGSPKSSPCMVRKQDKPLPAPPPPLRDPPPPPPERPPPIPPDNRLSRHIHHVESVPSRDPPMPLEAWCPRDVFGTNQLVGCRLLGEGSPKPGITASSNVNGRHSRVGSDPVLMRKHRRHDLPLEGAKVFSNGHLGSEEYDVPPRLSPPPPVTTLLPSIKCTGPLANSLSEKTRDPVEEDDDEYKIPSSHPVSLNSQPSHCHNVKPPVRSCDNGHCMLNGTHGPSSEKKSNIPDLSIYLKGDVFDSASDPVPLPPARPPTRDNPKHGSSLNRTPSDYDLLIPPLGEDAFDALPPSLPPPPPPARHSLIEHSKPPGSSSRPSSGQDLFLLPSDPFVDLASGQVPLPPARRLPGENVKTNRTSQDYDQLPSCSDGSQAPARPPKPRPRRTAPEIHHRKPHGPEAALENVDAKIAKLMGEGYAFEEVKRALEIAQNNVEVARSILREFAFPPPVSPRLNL

| IC50 [2] [µM] | Structure (SMILES) | fold change (FC) [1] | fold change (FC) [3] | fold change (FC) [4] | fold change (FC) [5] | fold change (FC) [6] | fold change (FC) [7] |
| --- | --- | --- | --- | --- | --- | --- | --- |
| < 0.1 | C[C@H](c1cc2c(c(C(F)(F)F)c1)CN(c1cccc(C3(Cc4nncn4C)COC3)c1)C2=O)N1CC(F)C1 | 0.101 | 1.31 | >=1.001 | 5 | 2.51 | 1.51 |
| < 0.1 | Cn1cnnc1CC1(c2cccc(NC(=O)c3[nH]nc4c3OCCC4)c2)COC1 | 0.051 | 1.01 | 0.601 | 1.01 | 1.01 | 1.01 |
| < 0.1 | CC(c1cc(C(=O)Nc2cccc(C3(Cc4nncn4C)COC3)c2)nc(C2CC2)n1)N1CCC2(CC2)C1 (single isomer, unassigned; 592a) | >=0.201 | 1.01 | >=1.001 | >=7.5 | 5 | 1.01 |
| < 0.1 | Cn1cnnc1CC1(c2cccc(N3Cc4c(cc(CN5CCC(C#N)CC5)cc4C(F)(F)F)C3=O)c2)COC1 | >=0.201 | 1.31 | >=1.001 | >=7.5 | 5 | 1.31 |
| < 0.1 | CC(c1cc2c(c(C3CC3)n1)CN(c1cccc(C3(Cc4nncn4C)COC3)c1)C2=O)N1CCC2(CC2)C1 (stereo unspecified) | 0.051 | 1.01 | 0.801 | 5 | 2.51 | 1.01 |
| < 0.1 | Cn1cnnc1CC1(c2cccc(N3Cc4c(cc(CN5Cc6cccnc6C5)cc4C(F)(F)F)C3=O)c2)COC1 | >=0.201 | 1.31 | >=1.001 | >=7.5 | 2.51 | 1.31 |
| < 0.1 | Cc1cc2c(c(C3CC3)n1)CN(c1cccc(C3(C(F)(F)c4nncn4C)COC3)c1)C2=O | 0.051 | 1.01 | 0.601 | 1.01 | 1.01 | 1.01 |
| < 0.1 | Cn1cnnc1CC1(c2cccc(N3Cc4c(cccc4C(F)(F)F)C3=O)c2)CC(F)(F)C1 | >=0.201 | 1.01 | >=1.001 | 5 | 2.51 | 1.01 |
| < 0.1 | Cn1cnnc1CC1(c2cccc(N3Cc4c(cc(OC5CNC5)cc4C(F)(F)F)C3=O)c2)COC1 | 0.051 | 1.01 | 0.801 | 1.01 | 1.01 | 1.01 |

The next lines start with the compound.

| Structure (SMILES) | IC50 [2] [µM] | fold change (FC) [1] | fold change (FC) [3] | fold change (FC) [4] | fold change (FC) [5] | fold change (FC) [6] | fold change (FC) [7] |
| --- | --- | --- | --- | --- | --- | --- | --- |
| Cn1cnnc1CC1(c2cccc(N3Cc4c(cc(N5CC6(CCC6(F)F)C5)cc4C(F)(F)F)C3=O)c2)COC1 | < 0.1 | <=0.05 | 1.01 | 0.601 | 2.51 | 1.01 | 1.01 |
| Cn1cnnc1CC1(c2cccc(NC(=O)c3cc(CN4CC[C@H](F)C4)nc(C4CC4)n3)c2)COC1 | < 0.1 | >=0.201 | 1.51 | >=1.001 | >=7.5 | >=7.5 | 1.51 |
| Cn1cnnc1CC1(c2cccc(N3Cc4c(cc(C5CN6CCC5CC6)cc4C(F)(F)F)C3=O)c2)COC1 (stereo unspecified) | < 0.1 | <=0.05 | 1.01 | 0.601 | 5 | 2.51 | 1.01 |
| Cn1cnnc1CC1(c2cccc(N3Cc4c(cc(CN5CCC6(CC6)C(F)(F)C5)cc4C(F)(F)F)C3=O)c2)COC1 | < 0.1 | >=0.201 | 1.31 | >=1.001 | >=7.5 | 2.51 | 1.31 |
| Cn1cnnc1CC1(c2cccc(N3Cc4c(cc(CN5CC[C@H](F)C5)nc4C4CC4)C3=O)c2)COC1 | < 0.1 | 0.051 | 1.01 | 0.801 | 5 | 2.51 | 1.01 |
| C[C@H]1CN(C)CCN1c1cc2c(c(C(F)(F)F)c1)CN(c1cccc(C3(Cc4nncn4C)COC3)c1)C2=O | < 0.1 | >=0.201 | 1.01 | >=1.001 | >=7.5 | 5 | 1.31 |
| Cn1cnnc1[C@@H](F)C1(c2cccc(N3Cc4c(cc(CN5CCC6(CC6)C5)cc4C(F)(F)F)C3=O)c2)COC1 | < 0.1 | 0.101 | 1.01 | >=1.001 | >=7.5 | 5 | 1.31 |
| CN1CC[C@@H](O)[C@H](Cc2cc3c(c(C(F)(F)F)c2)CN(c2cccc(C4(Cc5nncn5C)COC4)c2)C3=O)C1 (relative stereo) | < 0.1 | 0.101 | 1.01 | 0.801 | 2.51 | 1.01 | 1.01 |
| Cn1cnnc1CC1(c2cccc(NC(=O)c3cc(CN4C[C@@H]5[C@H](C4)C5(F)F)cc(C4CC4)n3)c2)COC1 | < 0.1 | >=0.201 | 1.31 | >=1.001 | >=7.5 | >=7.5 | 1.31 |
| Cn1cnnc1CC1(c2cccc(N3Cc4c(cc(CN5C6CCCC5CC6)cc4C(F)(F)F)C3=O)c2)COC1 | < 0.1 | >=0.201 | >=1.76 | >=1.001 | >=7.5 | >=7.5 | >=1.76 |
| C[C@H](c1cc2c(c(C(F)(F)F)c1)CN(c1cccc(C3(Cc4nncn4C)COC3)c1)C2=O)N1CC(C)(F)C1 | < 0.1 | >=0.201 | 1.51 | >=1.001 | >=7.5 | 5 | 1.51 |
| Cn1cnnc1C(F)(F)[C@](C)(F)c1cccc(NC(=O)c2cc(CN3CC[C@H](F)C3)nc(C3CC3)n2)c1 | < 0.1 | 0.051 | 1.01 | 0.801 | 5 | 2.51 | 1.01 |
| Cn1cnnc1CC1(c2cccc(N3Cc4c(cc(CN5[C@@H]6CC[C@H]5C[C@H](F)C6)cc4C(F)(F)F)C3=O)c2)COC1 | < 0.1 | >=0.201 | >=1.76 | >=1.001 | >=7.5 | 5 | >=1.76 |
| Cn1cnnc1CC1(c2cccc(N3Cc4c(cc(CN5CC6CC6(C)C5)cc4C(F)(F)F)C3=O)c2)COC1 (stereo unspecified) | < 0.1 | >=0.201 | 1.01 | >=1.001 | >=7.5 | >=7.5 | 1.01 |
| Cc1cc2c(c(C3CC3)n1)CN(c1cccc(C3(Cc4nncn4C)COC3)c1)C2=O | < 0.1 | 0.051 | 1.01 | 0.801 | 2.51 | 1.01 | 1.31 |
| CN1CCN(Cc2cc3c(c(C(F)(F)F)c2)CN(c2cccc(C4(Cc5nncn5C)COC4)c2)C3=O)CC1 | < 0.1 | >=0.201 | 1.31 | >=1.001 | >=7.5 | 2.51 | 1.31 |
| CC(c1cc2c(c(C3CC3)n1)CN(c1cccc(C3(Cc4nncn4C)COC3)c1)C2=O)N1CCCCC1 (stereo unspecified) | < 0.1 | >=0.201 | >=1.76 | 0.601 | >=7.5 | 5 | >=1.76 |
| C[C@@H]1CN(C)CCN1c1cc2c(c(C(F)(F)F)c1)CN(c1cccc(C3(Cc4nncn4C)COC3)c1)C2=O | < 0.1 | 0.151 | 1.01 | >=1.001 | >=7.5 | 2.51 | 1.31 |
| CN1C[C@H]2CC[C@@H](C1)N2c1cc(C(=O)Nc2cccc(C3(Cc4nncn4C)COC3)c2)nc(C2CC2)n1 | < 0.1 | >=0.201 | 1.31 | >=1.001 | >=7.5 | 5 | 1.51 |
